Measurements published in US7439251B2, “Methods and compositions for treatment of central and peripheral nervous system disorders and novel compounds useful therefor” (Israel Institute for Biological Research, priority 2002, dated 2008).

Columns and labels:
[1] = Chronic oral toxicity up to 13 weeks, rat; type: in vivo, Wistar rat
[2] = tested on: Aβ; assay: CSF and cortical Aβ in nbm-lesioned (hypocholinergic) rabbits; type: in vivo, rabbit; settings: vs lesioned saline controls
Source text: Twenty-eight female New Zealand White rabbits, about 2.5 kg each (young adults) were used. Twenty-one received lesions of the cholinergic nucleus basalis magnocellularis (nbm). The lesion was accomplished with unilateral i.c.v. injections of an immunotoxin consisting of the ribosomal toxin saporin conjugated to the monoclonal antibody MB20.4, which is directed against the low-affinity neurotophin receptor, p75. The ME20.4 antibody is made against monkey p 75 and also recognizes rabbit p75. The dose of immunotoxin was 32.4 μg in 12 μl; this was delivered to the right lateral ventricle 2 mm lateral to the bregma. Seven animals received i.c.v. injections of sterile normal saline (sham lesion). Animals which received the immunotoxin were divided into 3 groups of 7. […] Another group received physostigmine hemisalicylate in normal saline by s.c. osmotic pump at a daily dose of 3 mg/kg. The third group received twice-daily sterile saline s.c. injections. The animals which received a sham lesion were implanted with s.c. osmotic pumps filled with sterile normal saline. Animals were euthanized 4 weeks after surgery. […] Cerebrospinal fluid was taken from the cisterna magna of all animals at the time of sacrifice; the brain was removed and sliced coronally into 0.5 cm slices. […]

[3] = CNS safety, general observation and Irwin test in rats; type: in vivo, rat
Procedure: AF292 was evaluated in rodents for possible effects on general behavior and other […] related pharmacological effects.

[4] = Social memory (olfactory recognition) in naive rats; type: in vivo, rat; settings: 0.5, 1 and 5 mg/kg p.o., vs placebo, dose-dependent
Procedure: Animals were kept at 21° C.±1, with an inverse light-dark cycle (light on from 2:00 P.M. to 2:00 A.M.). The sessions were conducted 7 hr into the dark part of the light/dark cycle, under red illumination. […] The time spent by the adult rat in investigating the juvenile rat was recorded. […] Thus under the influence of a purported memory enhancing drug, the time spent in investigating the same juvenile is expected to be reduced. […] Any reduction in social exploration of this different juvenile is thus considered as reflecting a nonspecific effect of the drug (i.e., not memory related). On no occasion was a subject tested twice with the same juvenile stimulus animal, nor was a juvenile used more than once in a 48-hr period. […] Time spent in social investigation of stimulus juvenile rat was measured (in sec) and then expressed for each animal as the ratio of the second exposure to the first exposure (Ratio of Investigation Duration (RID)). […] Analysis for repeated measurement was made by a 3-way ANOVA and post hoc comparisons were made by simple main effects contrasts analysis.

[5] = tested on: Adrenergic α1A, α1B, α2A, α2B, α2C, β1, β2; BZD peripheral; Clozapine; Dopamine D1, D2, D3; GABA A; Glutamate sites; Glycine; Histamine H1-H3; Nicotinic …; assay: Selectivity binding panel for AF267B
[6] = biological target: muscarinic receptors (QNB, rat cerebellar membranes) (Rattus norvegicus, UniProt P10980); settings: read-out: QNB binding, Ki
Sequence of muscarinic receptors (QNB, rat cerebellar membranes) (P10980 whole entry): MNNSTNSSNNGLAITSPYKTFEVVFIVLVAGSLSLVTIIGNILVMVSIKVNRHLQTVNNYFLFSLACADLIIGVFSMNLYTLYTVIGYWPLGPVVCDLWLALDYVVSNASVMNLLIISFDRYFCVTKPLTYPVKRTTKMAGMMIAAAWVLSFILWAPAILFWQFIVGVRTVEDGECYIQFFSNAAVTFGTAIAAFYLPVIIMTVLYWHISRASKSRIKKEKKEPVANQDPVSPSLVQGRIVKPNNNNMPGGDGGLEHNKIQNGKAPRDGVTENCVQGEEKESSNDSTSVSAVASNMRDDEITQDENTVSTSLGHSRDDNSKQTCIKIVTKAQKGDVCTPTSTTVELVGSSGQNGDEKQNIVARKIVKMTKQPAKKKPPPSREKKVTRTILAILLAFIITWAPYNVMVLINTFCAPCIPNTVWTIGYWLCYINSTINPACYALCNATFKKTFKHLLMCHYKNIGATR

[7] = Passive avoidance in trihexyphenidyl treated rats; type: in vivo, rat; settings: for Trihexyphenidyl-rats-Passive avoidance, effect: AF292 0.03, 0.05, 0.1, 0.3, 0.5 mg/kg p.o., AF267B 0.5, 1, 5; for Trihexyphenidyl-rats-Passive avoidance, MED: p.o.
Source text: Trihexyphenidyl is a selective M1 muscarinic antagonist that crosses the blood brain barrier and induces memory and learning impairments (Bymaster et al. J Pharmacol Exp Ther 267: 16-24, 1993. Roldan et al Neurosci. Lett. 230: 93-96, 1997; Kimura et al Brain Res. 834: 6-12, 1999).
Naive Wistar rats were used in the experiments below. The passive avoidance (PA) task is comprised of training (acquisition) phase and a retention phase. In the training procedure each rat was individually placed in the small illuminated compartment and after 60 sec. of familiarization/adaptation, the door to the large compartment was opened and the latency to enter was measured (Initial Latency). Immediately following entry into the dark compartment, the door was closed and inescapable foot shock (0.6 mA for 3 sec) was delivered through the grid floor. A cutoff point of 180 sec was used for initial latency. […] After the acquisition trial the rat was returned to its home cage. Retention of the passive avoidance task was measured 24 h later, by again placing the rat in the light compartment and after a 60 sec adaptation interval, the door was opened and the latency to renter the dark compartment was measured. A cutoff point of 300 sec was used for retention latency.

[8] = Plasma levels of AF267B and its metabolite AF292 in dogs given AF267B (single dose and 13 weeks); type: in vivo, Beagle dog
Source text: Internal Standard (AF261): 2-Methyl-8-methyl-1-thia-4,8-diaza-spiro[4.5]decan-3-one; MW 200. The analytical plasma samples originate from the in-life part of this study.

[9] = tested on: APPs secretion; assay: APPs secretion in rat primary hippocampal, cortical and spinal cord cultures; type: cell-based; settings: 100 μM, 1 h
[10] = mouse, in vivo
[11] = tested on: tau; assay: tau-1 immunoreactivity in primary cell cultures (western blot); type: cell-based, rat; settings: cortical and hippocampal cultures, 1-100 μM
Procedure: Primary cell cultures were grown as described in EXAMPLE 38. Cell supernatants were removed and the cells were washed once in medium prior to the addition of cold phosphate buffre saline ph=7.4 (PBS) solution containing 0.2 mM EDTA. Cells were scraped using a rubber policeman, transferred to Eppendorf tubes, and centrifuged at 4° C. Cell pellets were resuspended in lysis buffer (EDTA 5 mM, Tris 50 mM, Triton 1%, NaCl 150 mM) containing protease inhibitors (5 units/ml apronitin, […] and 0.1 mM PMSF, Sigma) and subjected to centrifugation at 4° C. Supernatants were transferred into Eppendorf tubes and kept at −20° C. till analyzed. The extent of tau-1 immunoreactivity (an antibody that recognizes a non-phosphorylated tau at Ser^199) was determined by western blots.

[12] = Working memory (MWM) in ischemic rats; type: in vivo, rat; settings: 0.5 mg/kg po chronic, vs DDW
Procedure: This was done by a bilateral carotid artery occlusion in Sprague Dawley rats: […] Ischemia was induced in 21 rats whereas the other 21 rats served as sham controls. Under pentobarbital anasthesia (30 mg/kg, ip), sodium nitropruside 4.8 mg/kg/hr) was infused through a cannula implanted in the tail vein, for a period of 25 min. […] Immediately afterwards 1.8 mEq sodium bicarbonate solution was administerd ip in order to minimize systemic acidosis. The sham operated rats were anesthetized as the ischemic rats and were infused with saline. Their carotid arteries were exposed but were not subject to carotid clamping. […] Animals were allowed to recover for 3 weeks prior to behavioral testing. […] The evaluation of the animals was done using the working-memory matching-to-sample paradigm in the MWM. […] REL and RPL reflect the relative saving in performance from trial no 1 to trial no 2. REL and RPL were analyzed by a 3-way ANOVA (2×2×3), with one repeated variable (weeks) and two non-repeated variables (Operation-ischemia/sham-operated and Treatment-AF150(S)/DDW).

[13] = dogs, after 13 weeks daily AF267B 1.5, 3, 6 mg/kg po
[14] = female dogs, 13 weeks AF267B 1.5, 3, 6 mg/kg p.o.
[15] = female dogs, single dose (1×) of AF267B 1.5, 3, 6 mg/kg p.o.
[16] = male dogs, 13 weeks AF267B 1.5, 3, 6 mg/kg p.o.
[17] = male dogs, single dose (1×) of AF267B 1.5, 3, 6 mg/kg p.o.

SMILES | investigation time of the same juvenile (RID) [4] | Trihexyphenidyl-rats-Passive avoidance, effect [7] | Trihexyphenidyl-rats-Passive avoidance, MED [7] | AUC(0-t) [8, 13] | Cmax [8, 13] | plasma half life [8, 13] | MRT (area) ([8]; female dogs, 13 weeks) | AUC(0-inf) [8, 14] | MRT (area) ([8]; female dogs, single dose (1×)) | AUC(0-inf) [8, 15] | MRT (area) ([8]; male dogs, 13 weeks) | AUC(0-inf) [8, 16] | MRT (area) ([8]; male dogs, single dose (1×)) | AUC(0-inf) [8, 17] | APPs secretion, fold over control [9] | Tmax / peak in brain [10] | tau-1 immunoreactivity (non-phosphorylated tau) [11] | further results
CC[C@@H]1SC2(CCN(C)CC2)NC1=O [AF267B, (S)-2-ethyl-8-methyl-1-thia-4,8-diaza-spiro[4.5]decan-3-one] | decreased the investigation time | 0.5, 1, 5 positive effects | MED 0.1-0.5 mg/kg, p.o. | 712 to 3947 ng·h/mL | 162 to 1352 ng/mL | 1 to 2 h | 3.6 to 5.2 h | 1033 to 4164 ng·h/mL | 4.7 to 5.3 h | 985 to 3179 ng·h/mL | 3.0 to 4.2 h | 1041 to 4471 ng·h/mL | 3.8 to 5 h | 800 to 3691 ng·h/mL | 2.8 fold | 0.333 to 0.5 h | effective in elevating tau immunoreactivity | dose at which (muscarinic) effects are seen [1]: > 40 mg/kg; CSF sAPPα bands [2]: no significant difference; CSF Aβ (4 kDa band) ([2]; p=0.05): noticeable decrease; IRWIN TEST, duration of signs ([3]; rat, 100 mg/kg, p.o.): duration 3-6 hrs.).; IRWIN TEST, onset of signs ([3]; rat, 100 mg/kg, p.o.): reduced startle response (onset: 0.5 hr;; IRWIN TEST, signs (carriage, apathy, corneal reflex, diarrhea, grooming, urination, salivation, lacrimation, locomotor activity, respiration, startle) ([3]; rat, 100 mg/kg, p.o.): 100 mg/kg: abnormalities of carriage,; IRWIN TEST ([3]; rat, 1 & 10 mg/kg, p.o.): 1 & 10 no effect on gross behavior; General Observation: Chromodacryorrhea, dose ([3]; rat, p.o.): Chromodacryorrhea: 100 mg/kg, p.o.; General Observation: Convulsion, dose ([3]; rat, p.o.): Convulsion: 50 mg/kg, p.o.; General Observation: Gnawing, dose ([3]; rat, p.o.): Gnawing; 50 mg/kg, p.o.; General Observation: Hypothermia, dose ([3]; rat, p.o.): Hypothermia: 50 mg/kg, p.o.; General Observation: Lacrimation, dose ([3]; rat, p.o.): Lacrimation: 50 mg/kg, p.o.; General Observation: Mydriasis, dose ([3]; rat, p.o.): Mydriasis: 25 mg/kg, p.o.; General Observation: Salivation, dose ([3]; rat, p.o.): Salivation: 40 mg/kg, p.o.; General Observation: Sedation, dose ([3]; rat, p.o.): Sedation: 100 mg/kg, p.o.; dose at which effects begin (salivation and lacrimation) ([3]; rats, po, first hour): about 40 mg/kg; binding to other receptors and enzymes [5]: no binding at all; Ki [6]: 45.2 ± 10.8 µM; Tmax [8, 13]: 1.5 to 3 h; time after dosing detected in the brain [10]: 2 to 240 min
CC1=NCC2(CCN(C)CC2)S1 [AF150(S), 2,8-Dimethyl-1-thia-3,8-diaza-spiro[4.5]dec-2-ene] | decreased the investigation time |  |  |  |  |  |  |  |  |  |  |  |  |  | 2.8 fold | 0.017 to 0.167 h | effective in elevating tau immunoreactivity | brain penetration time ([10]; iv): 1 min; working memory performance (REL and RPL) [12]: significantly improved working memory performance
CC[C@@H]1SC2(CCNCC2)NC1=O [AF292, (S)-2-Ethyl-1-thia-4,8-diaza-spiro[4.5]decan-3-one] |  | positive effects | ≤ 0.03 mg/kg | 616 to 2451 ng·h/mL | 136 to 555 ng/mL | 9 to 20 h | 5.1 to 33.7 h | F(13 w): 1866-12723; M(13 w): ng * h/ml | 8.7 to 18.7 h | F (1×): outlier, 3901-4840; M (1×): ng * h/ml | 5 to 7.8 h | 1609 to 4170 ng·h/mL | 5 to 27.3 h | 1142 to 10932 ng·h/mL |  |  |  | physical or behavioral signs ([3]; rats, 1, 10, 30, 60, or 100 mg/kg orally): No significant physical or behavioral signs; Trihexyphenidyl-rats-Passive avoidance, duration ([7]; rat, in vivo): LONG DURATION OF ACTION; potency among the tested agonists ([7]; rat, in vivo): most potent compound among the tested agonists; Cmax vs. the Cmax of AF267B ([8]; dogs): 50-90%; T1/2 in plasma, times longer than AF267B ([8]; dogs): 3-5 times; Elimination half life, Mean T½ (M) ([8]; male dogs): Mean T½ (M) = 6.34 +/− 5.9; h
